Here are results for one molecule from patent publication US20080119488A1, “Modulators Of Nuclear Receptors” (EXELIXIS, INC., priority 2004, published 2008).

The target of the test is T1, LXRα or LXRβ.
T1 construct: fused on or other part: N-terminal poly-His tag from the pBacPakhis1 vector
The test can be described thus: Saturation binding of [3H] 24,25 epoxycholesterol (EC) to the receptor. Conditions: as determined by saturation binding; typical value used for the Cheng and Prusoff equation. Details: species or system human. Here is the method:
The SPA assay measures the radioactive signal generated by the binding of ^3H-24,25-epoxycholesterol to LXRα or LXRβ. The basis of the assay is the use of SPA beads containing a scintillant, such that when binding to the receptor brings the labeled ligand into proximity with the bead, the energy from the label stimulates the scintillant to emit light. The light is measured using a standard microplate scintillation reader. The ability of a ligand to bind to a receptor can be measured by assessing the degree to which the compound can compete off a radiolabelled ligand with known affinity for the receptor.
For this assay, typically the Concentration of Ligand=50 nM and the Kd of EC for the receptor is 200 nM as determined by saturation binding.

Consider `C[C@H](CCC1OC1(C)C)[C@H]1CC[C@H]2[C@@H]3CC=C4C[C@@H](O)CC[C@]4(C)[C@H]3CC[C@]12C` (stereo partly shown) [EC, 24,25 Epoxycholesterol], for which the Kd – broadly, the equilibrium constant for the complex coming apart – was 200 nM.
